Experimental data taken from patent US6107333A (priority 1999, dated 2000).
Entries after “also recorded” stand apart in the source; their conditions may differ. Read-outs that look alike come from different tables or passages of the source.

Assays:
[1] = system: erythrocytes; experiment: Hemolysis studies in vitro; assay type: cell-based; details: drug concentrations up to and exceeding 50 μg/ml; 4 hours at 37° C.
Description: The procedure of Parthasarathy et al. was used to examine the hemolytic potential of a few selected preparations and the LD50 values of the most optimal formulation was constructed as described (Parthasarathy et al., 1994). Heparinized blood was mixed with an equal volume of Alsever's solution. […] These mixtures were then incubated for 4 hours at 37° C. At the end of the incubation, the cells were pelleted at 10,000×gin an Eppendorf micro-centrifuge and the release of hemoglobin in the supernatant (ie., hemolysis) was determined spectrophotometrically at 550 nm. Maximum lysis was measured against a reference solution of erythrocytes that had been completely lysed by hypotonic shock. The hemolytic potential of the "optimal" complete formulation was evaluated as described (Parthasarathy et al., 1994) and the data were plotted as the fraction of healthy cells versus 1n (total volume percent). Total volume percent was defined as the volume percent of the vehicle in the mixture after dilution with blood. This was done to simulate the dilution of the respective drug formulation in the blood stream after parenteral administration.

[2] = Solubility of paclitaxel in various solvents (HPLC); assay type: physicochemical
Description: A known amount of the drug, as a powder (two different aliquots of purified drug were obtained from Xechem Inc. New Brunswick, N.J.), was equilibrated in the respective solvent at RT (22° C.) over 1 hour. An aliquot was then removed and diluted in MeOH prior to HPLC at predetermined times. […] Different solvent systems were evaluated relative to the above estimates of necessary solubility to arrive at a clinically relevant stable stock formulation. This stock formulation would then be diluted with a "final solvent" to yield a complete stable clinical working formulation of 1-5 mg/ml, that could be infused parenterally. The final solvent was selected from one of the commonly utilized parental infusion fluids, NS, 5% dextrose in water or a parenterally acceptable aqueous lipid emulsion (e.g., Intralipid), all of which are readily available and approved for parenteral administration.
An excess of paclitaxel as a powder was added to DMA, DMSO, PEG, and PG at RT. Each mixture was placed in a dark environment and checked visually for up to 1 hour for evidence of solubilization.

[3] = Paclitaxel plasma concentration after iv injection in rats; assay type: in vivo, male Sprague-Dawley rats; details: 3 mg/kg iv
Description: For the in vivo study, male Sprague-Dawley rats with a body weight of 250-300 g were used. They were bought from the Harlan-Sprague-Dawley local breeding facility in Houston, Tex. The animals were allowed a minimum of 3-4 days to accommodate to the change of environment after shipping to the MD Anderson Cancer Center. All animals were allowed free access to commercial feed and tap water prior to and during the pharmacological study. The dose of 3 mg/kg was determined as the highest dose that could be given to the rats as a slow iv injection of the Cremophor® EL based preparation without a lethal anaphylactoid reaction in the absence of pharmacological premedication.
This avoided the possible influence of induction of microsomal liver enzymes which could alter drug metabolism/elimination and influence (the later part of) the plasma concentration curve. For the same reason, all animals were unanesthesized and only physically restrained during the drug injection. The drug concentration of the injected use-formulation was confirmed by HPLC prior to use. […] The blood was centrifuged at 1,000×g for 10 min and the plasma was separated and stored at -80° C. until extracted and assayed by HPLC as described above.

[4] = for Stability (in words) / Degradation over first 60 days (in words): 25 mg/ml; for Stability of use-formulation (in words): aqueous lipid emulsion as terminal solvent
Description: To study the physical and chemical stability of the various parenteral formulations, 3 sets of studies were performed: […]
The various formulations were analyzed by HPLC immediately after mixing, then hourly for 8 hours, and then at gradually increasing time intervals for more than 10 days, depending on the initial rate of degradation in the respective solvent system.
Different aliquots were stored at 4° C., 22° C., 40° C., and 60° C. […] Immediately after solubilization and at various intervals up to more than 50 days, aliquots from different samples were analyzed by HPLC.

[5] = system: ovarian and mammary carcinomas; details: clinical testing; cited from earlier work

CC(=O)O[C@H]1C(=O)[C@@]2(C)[C@H]([C@H](OC(=O)c3ccccc3)[C@]3(O)C[C@H](OC(=O)[C@H](O)[C@@H](NC(=O)c4ccccc4)c4ccccc4)C(C)=C1C3(C)C)[C@]1(OC(C)=O)CO[C@@H]1C[C@@H]2O [Paclitaxel]
Paclitaxel dependent lysis (in words) [1]: barely notable above background | solubility ([2]; 5% dextrose, solvent 5% dextrose, 60 min at room temperature, read-out: Solubility): < 0.1 mg/mL | Solubility (in words) ([2]; PEG-400, PG, NS, Intralipid and 5% dextrose, RT): did not yield any significant concentrations of solubilized drug | solubility ([2]; dma, organic solvent or mixture, solvent DMA, RT, read-out: Solubility): > 200 mg/mL | solubility ([2]; dmso, organic solvent or mixture, solvent DMSO, RT, read-out: Solubility): > 100 mg/mL | solubility ([2]; intralipid, solvent Intralipid, 60 min at room temperature, read-out: Solubility): < 0.1 mg/mL | Solubility (in words) ([2]; most of the aqueous solvents): insoluble in most of the aqueous solvents | solubility ([2]; normal saline, solvent normal saline, 60 min at room temperature, read-out: Solubility): < 0.1 mg/mL | solubility ([2]; peg, organic solvent or mixture, solvent PEG, 60 min at room temperature, read-out: Solubility): < 0.1 mg/mL | solubility ([2]; propylene glycol, organic solvent or mixture, solvent propylene glycol, 60 min at room temperature, read-out: Solubility): < 0.1 mg/mL | solubility ([2]; solvent DMA, RT): > 100 mg/mL | Paclitaxel plasma concentrations (in words) [3]: clearly cytocidal concentrations of paclitaxel are maintained for many hours; also recorded: clearly reach, and for extended time, remain in the antineoplastic range | Time within which significant degradation took place [4]: 4 to 6 h | Time without discernible degradation [4]: more than 4.5 months | Stability (in words) ([4]; room temperature): stable at 25 mg/ml for several months at room temperature | Concentration of stable solution ([4]; DMA with PEG added (stock solution)): 25000 µg/mL | Degradation over first 60 days (in words) ([4]; DMA:PEG (1:3, v/v) stock, 4° C.): did not show any significant degradation | Stability (in words) ([4]; DMA:PEG (1:3, v/v) stock, 4° C., 4.5 months): overlapping with that recorded for the samples stored at RT | Degradation over first 60 days (in words) ([4]; DMA:PEG (1:3, v/v) stock, 40° C.): did not show any significant degradation | Degradation over first 60 days (in words) ([4]; DMA:PEG (1:3, v/v) stock, RT): did not show any significant degradation | Stability of use-formulation (in words) ([4]; 1 mg/ml, 4° C.): stable at 1 mg/ml and at 5 mg/ml for over one week | Stability of use-formulation (in words) ([4]; 1 mg/ml, RT): stable at 1 mg/ml and at 5 mg/ml for over one week | Stability of use-formulation (in words) ([4]; 5 mg/ml, 4° C.): stable at 1 mg/ml and at 5 mg/ml for over one week | Stability of use-formulation (in words) ([4]; 5 mg/ml, RT): stable at 1 mg/ml and at 5 mg/ml for over one week | Degradation on storage (in words) ([4]; in DMA, >100 mg/ml, RT): started degrading slowly after storage over night at RT | Antitumor activity (in words) [5]: impressive activity against ovarian and mammary carcinomas
